Measured values from PubChem BioAssay AID248 (DTP/NCI, 2004).
“And” between values parts separate entries of the source, which are not always exact repeats. Equal values may be shown once. Toxic doses and inconclusive results are not listed. No stated cut-off is given here; in the data, active means T/C of 150% or more; inactive means T/C below 125%.

Test system: L1210 leukemia ip in BDF1 mice, survival T/C
Test: NCI In Vivo Anticancer Drug Screen. Data for tumor model L1210 Leukemia (intraperitoneal) in B6D2F1 (BDF1) mice
Details: endpoint: mean survival time, higher = longer survival
Procedure, shortened: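 Transplanted-tumor mice were given test agent; controls received vehicle only. Survival readings from the two groups were divided (treated over control).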

[1] = dose: 100.0 mg/kg/injection, schedule: Q04DX003 (ip), vehicle: saline with Tween-80
[2] = dose: 200.0 mg/kg/injection, schedule: Q04DX003 (ip), vehicle: saline with Tween-80
[3] = dose: 400.0 mg/kg/injection, schedule: Q04DX003 (ip), vehicle: saline with Tween-80
[4] = dose: 100.0 mg/kg/injection, schedule: Q01DX009 (ip), vehicle: Klucel (hydroxypropylcellulose) (HPC)
[5] = dose: 100.0 mg/kg/injection, schedule: Q04DX003 (ip), vehicle: Klucel (hydroxypropylcellulose) (HPC)
[6] = dose: 200.0 mg/kg/injection, schedule: Q01DX009 (ip), vehicle: Klucel (hydroxypropylcellulose) (HPC)
[7] = dose: 200.0 mg/kg/injection, schedule: Q04DX003 (ip), vehicle: Klucel (hydroxypropylcellulose) (HPC)

Measured: T/C

OC1CCCC/C1=C/C=C/c1ccccc1 (stereo not given)
inactive: [1] 89 % of control and 97 % of control | [2] 92 % of control | [3] 90 % of control and 94 % of control

OCc1nc2cc(Cl)c(Cl)cc2[nH]1
inactive: dose: 100.0 mg/kg/injection, schedule: Q01DX001 (ip), vehicle: saline 93 % of control | dose: 200.0 mg/kg/injection, schedule: Q01DX001 (ip), vehicle: saline 96 % of control | dose: 400.0 mg/kg/injection, schedule: Q01DX001 (ip), vehicle: saline 102 % of control

CCOC(=O)C(CCC(=O)O)NC(=O)OCc1ccccc1 (stereo not given)
inactive: dose: 50.0 mg/kg/injection, schedule: Q04DX003 (ip), vehicle: Klucel (hydroxypropylcellulose) (HPC) 94 % of control | [4] 101 % of control | [5] 94 % of control and 100 % of control | [6] 106 % of control | [7] 93 % of control

O=C(OCC1OC(n2c(=O)[nH]c(=S)c3ncsc32)C(OC(=O)c2ccccc2)C1OC(=O)c1ccccc1)c1ccccc1 (stereo not given)
inactive: dose: 100.0 mg/kg/injection, schedule: Q01DX005 (ip), vehicle: saline 95 % of control | dose: 200.0 mg/kg/injection, schedule: Q01DX005 (ip), vehicle: saline 91 % of control

NC(=O)Nc1ccc(/C=C2\C=Cc3ccccc32)cc1
inactive: dose: 75.0 mg/kg/injection, schedule: Q01DX001 (ip), vehicle: saline 96 % of control | dose: 150.0 mg/kg/injection, schedule: Q01DX001 (ip), vehicle: saline 93 % of control | dose: 300.0 mg/kg/injection, schedule: Q01DX001 (ip), vehicle: saline 94 % of control

Oc1ccc(C=NCC2CCCC[N-]2)c(O)c1.Oc1ccc(C=NCC2CCCC[N-]2)c(O)c1.[Ni+2] (stereo not given)
inactive: [1] 95 % of control | [2] 87 % of control

Cc1cnc(C#N)c(Cl)n1
inactive: dose: 100.0 mg/kg/injection, schedule: Q01DX009 (ip), vehicle: saline with Tween-80 95 % of control | [1] 92 % of control | dose: 200.0 mg/kg/injection, schedule: Q01DX009 (ip), vehicle: saline with Tween-80 101 % of control | [2] 98 % of control | dose: 400.0 mg/kg/injection, schedule: Q01DX009 (ip), vehicle: saline with Tween-80 88 % of control | [3] 97 % of control

CCOC(=O)CN(c1c(C)cc(C)c(N(CC(=O)OCC)S(=O)(=O)c2ccccc2)c1C)S(=O)(=O)c1ccccc1
inactive: dose: 100.0 mg/kg/injection, schedule: Q04DX003 (ip), vehicle: saline 93 % of control | dose: 200.0 mg/kg/injection, schedule: Q04DX003 (ip), vehicle: saline 101 % of control | dose: 400.0 mg/kg/injection, schedule: Q04DX003 (ip), vehicle: saline 93 % of control

CCC12CCC(=O)NC1Cc1[nH]c3c(OC)cccc3c1C2 (stereo not given)
inactive: dose: 100.0 mg/kg/injection, schedule: Q01DX009 (ip), vehicle: saline sonified 93 % of control | dose: 200.0 mg/kg/injection, schedule: Q01DX009 (ip), vehicle: saline sonified 91 % of control | dose: 400.0 mg/kg/injection, schedule: Q01DX009 (ip), vehicle: saline sonified 91 % of control

COc1ccc(C)cc1NC(=O)Nc1cc(C(F)(F)F)ccc1Cl
inactive: [4] 88 % of control | [6] 95 % of control | dose: 400.0 mg/kg/injection, schedule: Q01DX009 (ip), vehicle: Klucel (hydroxypropylcellulose) (HPC) 90 % of control

O=C1NC2c3ccccc3CC12 (stereo not given)
inactive: dose: 100.0 mg/kg/injection, schedule: Q01DX001 (ip), vehicle: saline with Tween-80 95 % of control | dose: 200.0 mg/kg/injection, schedule: Q01DX001 (ip), vehicle: saline with Tween-80 92 % of control | dose: 400.0 mg/kg/injection, schedule: Q01DX001 (ip), vehicle: saline with Tween-80 89 % of control

COc1cc(C2C(C(=O)OC/C=C/c3ccc4c(c3)OCO4)C(c3cc(OC)c(OC)c(OC)c3)C2C(=O)OC/C=C/c2ccc3c(c2)OCO3)cc(OC)c1OC (stereo not given)
inactive: dose: 100.0 mg/kg/injection, schedule: Q01DX001 (ip), vehicle: carboxymethylcellulose (CMC) 90 % of control | dose: 200.0 mg/kg/injection, schedule: Q01DX001 (ip), vehicle: carboxymethylcellulose (CMC) 95 % of control | dose: 400.0 mg/kg/injection, schedule: Q01DX001 (ip), vehicle: carboxymethylcellulose (CMC) 88 % of control

CCC(Br)C(=O)Nc1c(C)cccc1Cl (stereo not given)
inactive: dose: 25.0 mg/kg/injection, schedule: Q01DX009 (ip), vehicle: Klucel (hydroxypropylcellulose) (HPC) 97 % of control | dose: 50.0 mg/kg/injection, schedule: Q01DX009 (ip), vehicle: Klucel (hydroxypropylcellulose) (HPC) 98 % of control | [4] 94 % of control and 101 % of control | [5] 97 % of control | [7] 95 % of control | dose: 400.0 mg/kg/injection, schedule: Q04DX003 (ip), vehicle: Klucel (hydroxypropylcellulose) (HPC) 97 % of control
